Tests used:
E. coli (ATCC 10536) = experiment: European Standard Assay method EN 1040, antimicrobial bioassay; type: cell-based; conditions: logarithmic scale (5 = factor of 100000); for Bioassay data E. coli 5 min: 5 min incubation; for Bioassay data E. coli 30 min: 30 min incubation
Experimental: (§1) The titanium dioxide particles coated with the appropriate phosphonates were subsequently assayed according the European Standard Assay method EN 1040 against two representative microbes:
(§2) S. aureaus (ATCC 6538) and E. coli (ATCC 10536).
(§3) Both microbes were incubated with the coated nanoparticles together with their corresponding free phosphonates within the same apparent concentrations for 5 and 30 minutes, respectively.
(§4) The data are given in a logarithmic scale which means that the number 5 indicates an increase of activity by a factor of 100000.

S. aureus (ATCC 6538) = experiment: as above; type: cell-based; conditions: logarithmic scale (5 = factor of 100000); for Bioassay data S. aureus 5 min: 5 min incubation; for Bioassay data S. aureus 30 min: 30 min incubation
Experimental: as §1, §2, §3, §4

CCOP(=O)(CCC#N)OCC [Compound A]
<1: Bioassay data E. coli 5 min (E. coli (ATCC 10536)) | Bioassay data E. coli 30 min (E. coli (ATCC 10536)) | Bioassay data S. aureus 5 min (S. aureus (ATCC 6538)) | Bioassay data S. aureus 30 min (S. aureus (ATCC 6538))

CCCCCCCCCCCCCCCCCC(=O)NCCP(=O)(OCC)OCC [Compound J]
<1: Bioassay data E. coli 5 min (E. coli (ATCC 10536)) | Bioassay data E. coli 30 min (E. coli (ATCC 10536)) | Bioassay data S. aureus 5 min (S. aureus (ATCC 6538)) | Bioassay data S. aureus 30 min (S. aureus (ATCC 6538))

CCCCCCCC/C=C/CCCCCCCC(=O)NCCP(=O)(OCC)OCC [Compound K]
<1: Bioassay data E. coli 5 min (E. coli (ATCC 10536)) | Bioassay data E. coli 30 min (E. coli (ATCC 10536)) | Bioassay data S. aureus 5 min (S. aureus (ATCC 6538)) | Bioassay data S. aureus 30 min (S. aureus (ATCC 6538))

CCOP(=O)(CCNC(=O)CCCCCN=[N+]=[N-])OCC [Compound L]
<1: Bioassay data E. coli 5 min (E. coli (ATCC 10536)) | Bioassay data E. coli 30 min (E. coli (ATCC 10536)) | Bioassay data S. aureus 5 min (S. aureus (ATCC 6538)) | Bioassay data S. aureus 30 min (S. aureus (ATCC 6538))

CCOP(=O)(CCNC(=O)CCC(=O)O)OCC [Compound M]
<1: Bioassay data E. coli 5 min (E. coli (ATCC 10536)) | Bioassay data E. coli 30 min (E. coli (ATCC 10536)) | Bioassay data S. aureus 5 min (S. aureus (ATCC 6538)) | Bioassay data S. aureus 30 min (S. aureus (ATCC 6538))

CCOP(=O)(CCCCNC(=O)OCc1ccccc1)OCC [Compound N]
<1: Bioassay data E. coli 5 min (E. coli (ATCC 10536)) | Bioassay data E. coli 30 min (E. coli (ATCC 10536)) | Bioassay data S. aureus 5 min (S. aureus (ATCC 6538)) | Bioassay data S. aureus 30 min (S. aureus (ATCC 6538))

Source: US20090123507A1, “Metal Oxide Nanoparticles Coated With Specific N-Acylaminomethylene Phosphonates” (priority 2005, published 2009)
